Values quoted from earlier work, collected in patent US11974997B2, “RORgamma modulators and uses thereof” (Genfit, priority 2017, dated 2024).

What was measured:
[1] = administered by injection; cited from earlier work
[2] = administered by injection; cited from earlier work; remark: listed apart in the source

| Structure (SMILES) | efficacy in multiple sclerosis model [1] | efficacy in psoriasis model [2] |
| --- | --- | --- |
| CC(=O)Nc1nc(C)c(S(=O)(=O)Nc2ccc(C(O)(C(F)(F)F)C(F)(F)F)cc2)s1 [SR1001] | efficacious |  |
| Cc1ccc([C@@H](NC(=O)Cc2ccc3oc([C@@H](O)c4c(C)noc4C)cc3c2)c2ccccc2)c(C)c1 [TMP778] |  | efficacious |
